Source: EP1285918A1, “C7 Ester substituted taxanes as antitumor agents” (Florida State University Research Foundation, Inc., priority 2001, dated 2003)
Read-outs that look alike come from different tables or passages of the source.

Assays:
HCT116 = assay: In Vitro cytotoxicity measured by the cell colony formation assay; type: cell-based; conditions: Homo sapiens, HCT-116; 72 h drug incubation, colonies counted after 7 days; concentration producing 50% inhibition of colony formation; read-out: IN VITRO ID 50 (nm) HCT116
[1] = system: MX-1 Human Breast Carcinoma Xenograft; conditions: for Survivors / Complete Responses / Partial Responses / Stable Disease / Toxic Deaths / MDS (n): 6 mice/group, study end Day 60; for MDS (n): days until tumor reached 1.5 g
Procedure: The antitumor compounds were prepared in the following vehicle: 5% ethanol, 5% Cremophor and 90% isotonic saline.
Female Nu/Nu mice (12-13 weeks of age; implanted with 1 mm^3 MX-1 human breast carcinoma fragments in the flank) were sorted into treatment groups of six mice each (MX-1 tumor size ranges and group mean MX-1 tumor size ranges were 56-138 mg and 68-74 mg, respectively). […] All treatments were administered as a single oral bolus on Day 1, and the study was terminated on Day 60.
(§1) The mean days of survival is the number of days after which an MX-1 neoplasm reached a size of 1.5 g and the animal was euthanized. A complete response is obtained if the tumor is not palpable at the end of the study. A partial response is obtained if the tumor shrinks to a size smaller than its size on Day 1 of the study.

[2] = system: SKMES human lung cancer xenograft; conditions: for Survivors / Complete Responses / Partial Responses / Stable Disease / Toxic Deaths / MDS (n) / % Total Response: 6 mice/group, study end Day 62; for 62-day survivors: 6 mice; for MDS (n): days until tumor reached 2.0 g; for MDS: 2.0 g cut-off
Procedure: Female Nu/Nu mice (6-8 weeks of age; implanted with 1 mm^3 SKMES lung carcinoma fragments in the flank) were sorted into treatment groups of six mice each. […] Treatment was administered as a single bolus on Day 1, and the study was terminated on Day 62.
as §1, with “a SKMES” for “an MX-1”, “2.0” for “1.5”

SK-MES carcinoma = assay: In vivo evaluation against SK-MES human lung carcinoma xenograft, i.v. (Example 11)
Procedure: Two antitumor compounds were formulated for an i.v. dosing regime prepared in the following vehicle: 10% ethanol, 10% Cremophor and 80% isotonic saline. […] Other compounds were formulated similarly.
The MTDs for the antitumor compounds were calculated from earlier single dose data for mice receiving i.v. administration of these compounds. […] Vehicle control animals were dosed twice intravenously with half the total volume being given separated by one hour. The study was terminated at Day 60.
as §1, with “The results are summarized in Table 1 and include mean days of survival (MDS), number of toxic deaths, number of survivors, number of complete or partial responses, and number with stable disease. The” for “The”, “a” for “an MX-1”
A tumor scoring system was designed to provide a more quantitative ranking of efficacy (therapeutic potential) among the antitumor agents evaluated against the different human solid tumor xenografts. Each mouse in a study was given a score of from 1 to 10 at the end of the study. The scores can be summarized as follows:
The individual score for each mouse was averaged into a mean score for each treatment group. […]

[3] = 73.4 mg/kg single oral bolus Day 1
[4] = 105 mg/kg single oral bolus Day 1
[5] = 5.2 mg/kg single IV bolus Day 1
[6] = 5.2 mg/kg single oral bolus Day 1
[7] = 10.4 mg/kg single IV bolus Day 1
[8] = 10.4 mg/kg single oral bolus Day 1
[9] = 20.8 mg/kg single IV bolus Day 1
[10] = 20.8 mg/kg single oral bolus Day 1
[11] = 42 mg/kg single oral bolus Day 1
[12] = 73 mg/kg single oral bolus Day 1
[13] = 104 mg/kg single IV bolus Day 1
[14] = 104 mg/kg single oral bolus Day 1
[15] = i.v. split dose qd x 1 at MTD (Taxol 36 mg/kg, 1393 72.1 mg/kg), 6 mice/group, Day 60
[16] = 70 mg/kg single oral bolus Day 1
[17] = 100 mg/kg single oral bolus Day 1

## CCC(=O)O[C@H]1C[C@H]2OC[C@@]2(OC(C)=O)[C@H]2[C@H](OC(=O)c3ccccc3)[C@]3(O)C[C@H](OC(=O)[C@H](O)[C@H](C=C(C)C)NC(=O)OC(C)(C)C)C(C)=C([C@@H](O)C(=O)[C@]12C)C3(C)C [Compound 1351]
HCT116
  IC50: < 1 nM

## CCC(=O)OC1CC2OCC2(OC(C)=O)C2C(OC(=O)c3ccccc3)C3(O)CC(OC(=O)C(O)C(NC(=O)OC(C)(C)C)c4ccco4)C(C)=C(C(O)C(=O)C12C)C3(C)C (stereo not shown) [Compound 1393, 3'-Desphenyl-3'-(2-furyl)-7-propionyl taxotere]
[1]; [3]
  Survivors: 5
[1]; [4]
  Survivors: 5
[2]; [5]
  Survivors: 0
[2]; [6]
  Survivors: 0
[2]; [7]
  Survivors: 0
[2]; [8]
  Survivors: 0
[2]; [9]
  Survivors: 0
[2]; [10]
  Survivors: 0
[2]; 42 mg/kg single IV bolus Day 1
  Survivors: 4
[2]; [11]
  Survivors: 0
[2]; 73 mg/kg single IV bolus Day 1
  Survivors: 6
[2]; [12]
  Survivors: 2
[2]; [13]
  Survivors: 6
[2]; [14]
  Survivors: 5
[2]; SKMES, 1393 single IV bolus 42 mg/kg (Group 5)
  62-day survivors: four
[2]; SKMES, 1393 single IV bolus 73 mg/kg (Group 4)
  62-day survivors: six
[2]; SKMES, 1393 single IV bolus 104 mg/kg (Group 3)
  62-day survivors: six
[2]; SKMES, 1393 single oral bolus 72.8 mg/kg (Group 12)
  62-day survivors: two
[2]; SKMES, 1393 single oral bolus 104 mg/kg (Group 11)
  62-day survivors: Five
SK-MES carcinoma; [15]
  Complete Response: six

## CCC(=O)O[C@H]1C[C@H]2OC[C@@]2(OC(C)=O)[C@H]2[C@H](OC(=O)c3ccccc3)[C@]3(O)C[C@H](OC(=O)[C@H](O)[C@@H](NC(=O)OC(C)(C)C)c4ccco4)C(C)=C([C@@H](O)C(=O)[C@]12C)C3(C)C [Compound 1393, 3'-Desphenyl-3'-(2-furyl)-7-propionyl taxotere]
[1]; [3]
  Complete Responses: 4
  Partial Responses: 0
  Stable Disease: 1
  Toxic Deaths: 1
[1]; [4]
  Complete Responses: 5
  Partial Responses: 0
  Stable Disease: 0
  Toxic Deaths: 0
[2]; [5]
  Complete Responses: 0
  Partial Responses: 0
  Stable Disease: 0
  Toxic Deaths: 0
  MDS (n): 10.5 ± 0.9 (6) days
[2]; [6]
  % Total Response: 0%
  Complete Responses: 0
  Partial Responses: 0
  Stable Disease: 0
  Toxic Deaths: 0
  MDS (n): 9.2 ± 0.8 (6) days
[2]; [7]
  Complete Responses: 0
  Partial Responses: 0
  Stable Disease: 0
  Toxic Deaths: 0
  MDS (n): 16.3 ± 1.3 (6) days
[2]; [8]
  % Total Response: 0%
  Complete Responses: 0
  Partial Responses: 0
  Stable Disease: 0
  Toxic Deaths: 0
  MDS (n): 9.1 ± 0.7 (6) days
[2]; [9]
  % Total Response: 0%
  Complete Responses: 0
  Partial Responses: 0
  Stable Disease: 0
  Toxic Deaths: 0
  MDS (n): 23.2 ± 1.8 (6) days
[2]; [10]
  % Total Response: 0%
  Complete Responses: 0
  Partial Responses: 0
  Stable Disease: 0
  Toxic Deaths: 0
  MDS (n): 9.6 ±0.6 (6) days
[2]; 42 mg/kg single IV bolus Day 1
  % Total Response: 66.7%
  Complete Responses: 3
  Partial Responses: 1
  Stable Disease: 0
  Toxic Deaths: 0
[2]; [11]
  % Total Response: 0%
  Complete Responses: 0
  Partial Responses: 0
  Stable Disease: 0
  Toxic Deaths: 0
  MDS (n): 14.5 ± 1.1 (6) days
[2]; 73 mg/kg single IV bolus Day 1
  % Total Response: 100%
  Complete Responses: 3
  Partial Responses: 3
  Stable Disease: 0
  Toxic Deaths: 0
[2]; [12]
  % Total Response: 40%
  Complete Responses: 2
  Partial Responses: 0
  Stable Disease: 0
  Toxic Deaths: 1
  MDS (n): 36.3 ±1.5 (3) days
[2]; [13]
  % Total Response: 100%
  Complete Responses: 5
  Partial Responses: 1
  Stable Disease: 0
  Toxic Deaths: 0
[2]; [14]
  % Total Response: 83.3%
  Complete Responses: 4
  Partial Responses: 1
  Stable Disease: 0
  Toxic Deaths: 0
[2]; SKMES, 1393 orally, lower doses (20.8, 10.4, 5.2 mg/kg)
  activity: not active
[2]; SKMES, 1393 single IV bolus 10.4 mg/kg (Group 7)
  MDS: 16.3 days
[2]; SKMES, 1393 single IV bolus 20.8 mg/kg (Group 6)
  MDS: 23.2 days
SK-MES carcinoma; 1393 72.1 mg/kg i.v.
  complete response rate: 100%
  days between which complete responses occurred: 14 to 24 days
SK-MES carcinoma; [15]
  Complete Response: 6
  Partial Response: 0
  Stable Disease: 0
  Toxic Deaths: 0
SK-MES carcinoma; i.v. split dose qd x 1 at MTD (Taxol 36 mg/kg, 1393 72.1 mg/kg), tumor score 1 to 10 per mouse, group mean
  Mean Score: 10+0

## CCC(=O)O[C@H]1C[C@H]2OC[C@@]2(OC(C)=O)[C@H]2[C@H](OC(=O)c3ccccc3)[C@]3(O)C[C@H](OC(=O)[C@H](O)[C@@H](NC(=O)OC(C)(C)C)c4ccoc4)C(C)=C([C@@H](O)C(=O)[C@]12C)C3(C)C [Compound 1401]
HCT116
  IC50: < 1 nM

## CCC(=O)O[C@H]1C[C@H]2OC[C@@]2(OC(C)=O)[C@H]2[C@H](OC(=O)c3ccccc3)[C@]3(O)C[C@H](OC(=O)[C@H](O)[C@@H](NC(=O)OC(C)(C)C)c4cccs4)C(C)=C([C@@H](O)C(=O)[C@]12C)C3(C)C [Compound 1418]
HCT116
  IC50: < 1 nM

## CC(=O)O[C@@]12CO[C@@H]1C[C@H](O)[C@@]1(C)C(=O)[C@H](O)C3=C(C)[C@@H](OC(=O)[C@H](O)[C@@H](NC(=O)OC(C)(C)C)c4ccccc4)C[C@@](O)([C@@H](OC(=O)c4ccccc4)[C@H]21)C3(C)C [docetaxel, reference compound]
[1]; [16]
  Complete Responses: 0
  Partial Responses: 0
  Stable Disease: 0
  Survivors: 0
  Toxic Deaths: 0
  MDS (n): 27.9 ± 4.3 (6) days
[1]; [17]
  Complete Responses: 0
  Partial Responses: 1
  Stable Disease: 0
  Survivors: 1
  Toxic Deaths: 0
  MDS (n): 27.1 ± 3.5 (5) days
[1]; MX-1, single oral bolus, Taxol 40 and 28 mg/kg groups together, Taxotere 100 and 70 mg/kg groups together, Day 60
  Partial Response: One
HCT116
  IC50: 0.6 nM
